From patent US9422267B2, “Fused pyrimidine compounds and use thereof” (Medivation Technologies, Inc., priority 2012, dated 2016)

Assays:
PAK5(PAK7) = PAK5(PAK7) (Homo sapiens, UniProt Q9P286); experiment: Caliper kinase profiling: PAK5(PAK7); format: biochemical; details: read-out: Average % Inh @ 1 μM
FLT3 = FLT3 (Homo sapiens, UniProt P36888); experiment: Caliper kinase profiling: FLT3; format: biochemical; details: FLT3, 1 μM; read-out: Average % Inh @ 1 μM
FES = FES (Homo sapiens, UniProt P07332); experiment: Caliper kinase profiling: FES; format: biochemical; details: read-out: Average % Inh @ 1 μM
ABL = biological target: T1, ABL (Homo sapiens, UniProt P00519); experiment: Caliper kinase profiling: ABL; format: biochemical; details: read-out: Average % Inh @ 1 μM
T1 construct: purchased Caliper LifeSciences (ProfilerPro Kinase Selectivity Assay Kits)

Mer = biological target: T2, Mer (Homo sapiens, UniProt Q12866); experiment: Caliper kinase profiling: Mer; format: biochemical; details: for inhibition at 0.01 µM: 10 nM, read-out: Average % Inh @ 10 nM
T2 construct: purchased Caliper LifeSciences (ProfilerPro Kinase Selectivity Assay Kits)
T2 sequence (Q12866 21-999): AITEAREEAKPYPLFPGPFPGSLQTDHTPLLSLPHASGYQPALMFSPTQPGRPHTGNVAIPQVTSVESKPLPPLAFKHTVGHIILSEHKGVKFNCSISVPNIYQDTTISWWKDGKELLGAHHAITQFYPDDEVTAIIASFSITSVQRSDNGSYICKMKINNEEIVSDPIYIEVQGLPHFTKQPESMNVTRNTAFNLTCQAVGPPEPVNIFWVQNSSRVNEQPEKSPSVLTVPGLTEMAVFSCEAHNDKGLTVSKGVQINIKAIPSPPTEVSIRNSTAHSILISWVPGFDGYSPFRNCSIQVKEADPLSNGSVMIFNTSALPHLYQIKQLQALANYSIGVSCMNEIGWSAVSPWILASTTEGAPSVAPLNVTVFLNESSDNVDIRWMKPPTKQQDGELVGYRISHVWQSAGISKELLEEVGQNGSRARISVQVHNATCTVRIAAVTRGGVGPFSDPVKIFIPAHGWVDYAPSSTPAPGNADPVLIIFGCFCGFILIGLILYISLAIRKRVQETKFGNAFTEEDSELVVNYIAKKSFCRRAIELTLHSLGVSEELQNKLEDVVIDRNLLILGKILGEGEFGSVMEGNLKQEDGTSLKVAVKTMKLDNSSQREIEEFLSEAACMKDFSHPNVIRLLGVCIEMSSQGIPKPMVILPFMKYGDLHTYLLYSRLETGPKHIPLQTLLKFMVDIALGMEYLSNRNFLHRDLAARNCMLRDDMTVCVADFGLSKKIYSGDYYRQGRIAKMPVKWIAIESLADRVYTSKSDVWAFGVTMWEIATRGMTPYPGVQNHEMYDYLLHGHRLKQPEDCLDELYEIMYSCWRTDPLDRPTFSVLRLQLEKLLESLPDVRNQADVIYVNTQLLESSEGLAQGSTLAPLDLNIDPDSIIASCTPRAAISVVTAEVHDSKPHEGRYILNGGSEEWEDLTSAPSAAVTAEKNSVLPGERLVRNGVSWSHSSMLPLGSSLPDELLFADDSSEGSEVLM

EPHA3 = EPHA3 (Homo sapiens, UniProt P29320); experiment: Caliper kinase profiling: EPHA3; format: biochemical; details: EPHA3, 1 μM; read-out: Average % Inh @ 1 μM
ABL1(Y253F) = biological target: T3, ABL1(Y253F) (Homo sapiens, UniProt P00519, Y253F); experiment: Caliper kinase profiling: ABL1(Y253F); format: biochemical; details: read-out: Average % Inh @ 1 μM
T3 construct: purchased Caliper LifeSciences (ProfilerPro Kinase Selectivity Assay Kits)

FGFR1 = FGFR1 (Homo sapiens, UniProt P11362); experiment: Caliper kinase profiling: FGFR1; format: biochemical
EPHA5 = EPHA5 (Homo sapiens, UniProt P54756); experiment: Caliper kinase profiling: EPHA5; format: biochemical; details: EPHA5, 1 μM; read-out: Average % Inh @ 1 μM
Flt3(D835Y) = Flt3(D835Y) (Homo sapiens, UniProt P36888, D835Y); experiment: Caliper kinase profiling: Flt3(D835Y); format: biochemical; details: read-out: Average % Inh @ 1 μM
Arg = biological target: T4, Arg (Homo sapiens, UniProt P42684); experiment: Caliper kinase profiling: Arg; format: biochemical
T4 construct: purchased Caliper LifeSciences (ProfilerPro Kinase Selectivity Assay Kits)

ROS(ROS1) = biological target: T5, ROS(ROS1) (Homo sapiens, UniProt P08922); experiment: Caliper kinase profiling: ROS(ROS1); format: biochemical; details: for inhibition at 0.01 µM: 10 nM, read-out: Average % Inh @ 10 nM
T5 construct: purchased Caliper LifeSciences (ProfilerPro Kinase Selectivity Assay Kits)
From the text: ROS1 is a proto-oncogene and is highly expressed in many cancers.

[1] = system: human breast cancer MCF7 cells; experiment: Efficacy in xenograft model of human breast cancer; format: in vivo, mice
Description: To evaluate the efficacy of tumor growth inhibition, the compound 8b was studied using human cancer mouse models. The models are prepared by subcutaneously or orthotopically implanting mice with human cancer cells. When the tumor size of the mice develops (e.g., reaches 100 mm^3), the mice are divided into groups for treatment with compound 8b (where different groups receiving the compound 8b may be administered different amounts of the compound 8b) or are provided no compound as a control. The mice are treated (e.g., orally administered a compound of the invention) for a period of time. During the course of the study, the tumor is measured and the weight of the mice is determined. After the treatment period, the mice are sacrificed shortly (e.g. 1 or 2 hours) after the final dose. Blood and tissue are collected for biochemical analysis.
To evaluate the efficacy of tumor growth inhibition, compound 8b was studied using a human breast cancer mouse model. […]
The appropriate amount of compound 8b was sonicated in a PEG-400 solution (80% w/v in case of Example B6B; and 50% w/v in case of Example B6C) to completely dissolve the compound, followed by dropwise addition of the required amount of H2O. […] During the course of the study, the tumor was measured and the weight of the mice was determined. […]

[2] = 100 nM, read-out: Average % Inh @ 100 nM
[3] = 1 μM, read-out: Average % Inh @ 1 μM

T5 sequence (P08922 28-2347): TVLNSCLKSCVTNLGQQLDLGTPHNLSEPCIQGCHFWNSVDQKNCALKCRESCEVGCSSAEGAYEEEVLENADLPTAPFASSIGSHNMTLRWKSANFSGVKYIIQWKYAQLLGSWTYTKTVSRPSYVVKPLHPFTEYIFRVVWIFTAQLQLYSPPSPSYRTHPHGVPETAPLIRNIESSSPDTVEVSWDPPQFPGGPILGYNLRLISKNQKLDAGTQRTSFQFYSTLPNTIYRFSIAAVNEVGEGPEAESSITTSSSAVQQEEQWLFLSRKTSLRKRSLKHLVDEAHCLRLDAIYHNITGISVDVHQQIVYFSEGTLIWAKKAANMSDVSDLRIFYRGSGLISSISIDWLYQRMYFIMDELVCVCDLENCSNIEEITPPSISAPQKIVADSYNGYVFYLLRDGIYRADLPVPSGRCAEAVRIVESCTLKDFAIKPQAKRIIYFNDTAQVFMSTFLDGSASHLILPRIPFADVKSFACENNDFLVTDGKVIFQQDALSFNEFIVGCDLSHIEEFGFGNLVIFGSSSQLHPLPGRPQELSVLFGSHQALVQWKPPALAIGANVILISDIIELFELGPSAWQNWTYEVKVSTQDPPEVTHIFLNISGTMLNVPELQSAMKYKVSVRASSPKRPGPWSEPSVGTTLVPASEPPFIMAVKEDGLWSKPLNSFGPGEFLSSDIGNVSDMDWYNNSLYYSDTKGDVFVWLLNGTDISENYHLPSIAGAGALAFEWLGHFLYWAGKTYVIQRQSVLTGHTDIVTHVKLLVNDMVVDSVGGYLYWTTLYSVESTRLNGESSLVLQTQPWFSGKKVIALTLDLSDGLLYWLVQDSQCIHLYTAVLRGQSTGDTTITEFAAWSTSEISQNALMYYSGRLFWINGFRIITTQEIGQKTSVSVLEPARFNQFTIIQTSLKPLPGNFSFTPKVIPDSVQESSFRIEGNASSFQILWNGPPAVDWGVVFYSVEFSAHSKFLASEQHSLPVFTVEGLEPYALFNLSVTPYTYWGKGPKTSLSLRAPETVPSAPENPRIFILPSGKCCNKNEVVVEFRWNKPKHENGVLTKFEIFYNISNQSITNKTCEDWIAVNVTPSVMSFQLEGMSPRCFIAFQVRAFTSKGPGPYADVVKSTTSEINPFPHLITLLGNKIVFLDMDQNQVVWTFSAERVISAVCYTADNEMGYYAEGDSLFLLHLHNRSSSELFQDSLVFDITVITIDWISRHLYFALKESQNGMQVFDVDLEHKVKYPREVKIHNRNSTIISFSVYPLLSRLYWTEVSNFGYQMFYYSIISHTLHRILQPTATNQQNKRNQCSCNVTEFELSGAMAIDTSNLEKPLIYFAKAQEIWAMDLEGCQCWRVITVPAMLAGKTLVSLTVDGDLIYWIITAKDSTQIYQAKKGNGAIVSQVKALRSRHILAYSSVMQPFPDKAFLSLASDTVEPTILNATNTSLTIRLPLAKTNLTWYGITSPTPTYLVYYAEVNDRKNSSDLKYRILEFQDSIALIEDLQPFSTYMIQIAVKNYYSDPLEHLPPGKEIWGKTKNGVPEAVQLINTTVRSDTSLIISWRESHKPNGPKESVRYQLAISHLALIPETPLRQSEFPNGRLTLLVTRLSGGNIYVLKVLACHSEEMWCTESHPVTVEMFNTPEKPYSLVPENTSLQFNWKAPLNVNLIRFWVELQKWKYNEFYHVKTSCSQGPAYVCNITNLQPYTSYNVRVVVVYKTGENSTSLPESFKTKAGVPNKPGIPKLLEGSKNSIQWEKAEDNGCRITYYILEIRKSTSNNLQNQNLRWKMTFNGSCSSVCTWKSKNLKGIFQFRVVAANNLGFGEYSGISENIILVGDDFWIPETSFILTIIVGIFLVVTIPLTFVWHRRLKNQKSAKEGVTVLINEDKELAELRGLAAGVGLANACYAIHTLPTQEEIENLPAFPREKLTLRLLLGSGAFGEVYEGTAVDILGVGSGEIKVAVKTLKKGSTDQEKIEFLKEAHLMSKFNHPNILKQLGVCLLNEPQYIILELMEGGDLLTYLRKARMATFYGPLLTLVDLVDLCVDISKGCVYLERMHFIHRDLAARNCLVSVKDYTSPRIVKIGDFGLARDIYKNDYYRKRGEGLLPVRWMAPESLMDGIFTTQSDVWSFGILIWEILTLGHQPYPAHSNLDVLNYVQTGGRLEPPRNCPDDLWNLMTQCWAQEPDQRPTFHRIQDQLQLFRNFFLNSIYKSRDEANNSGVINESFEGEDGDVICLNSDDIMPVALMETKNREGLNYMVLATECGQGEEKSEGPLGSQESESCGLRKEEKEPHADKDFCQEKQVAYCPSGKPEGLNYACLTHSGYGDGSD
Chain of FGFR1 (P11362 22-822): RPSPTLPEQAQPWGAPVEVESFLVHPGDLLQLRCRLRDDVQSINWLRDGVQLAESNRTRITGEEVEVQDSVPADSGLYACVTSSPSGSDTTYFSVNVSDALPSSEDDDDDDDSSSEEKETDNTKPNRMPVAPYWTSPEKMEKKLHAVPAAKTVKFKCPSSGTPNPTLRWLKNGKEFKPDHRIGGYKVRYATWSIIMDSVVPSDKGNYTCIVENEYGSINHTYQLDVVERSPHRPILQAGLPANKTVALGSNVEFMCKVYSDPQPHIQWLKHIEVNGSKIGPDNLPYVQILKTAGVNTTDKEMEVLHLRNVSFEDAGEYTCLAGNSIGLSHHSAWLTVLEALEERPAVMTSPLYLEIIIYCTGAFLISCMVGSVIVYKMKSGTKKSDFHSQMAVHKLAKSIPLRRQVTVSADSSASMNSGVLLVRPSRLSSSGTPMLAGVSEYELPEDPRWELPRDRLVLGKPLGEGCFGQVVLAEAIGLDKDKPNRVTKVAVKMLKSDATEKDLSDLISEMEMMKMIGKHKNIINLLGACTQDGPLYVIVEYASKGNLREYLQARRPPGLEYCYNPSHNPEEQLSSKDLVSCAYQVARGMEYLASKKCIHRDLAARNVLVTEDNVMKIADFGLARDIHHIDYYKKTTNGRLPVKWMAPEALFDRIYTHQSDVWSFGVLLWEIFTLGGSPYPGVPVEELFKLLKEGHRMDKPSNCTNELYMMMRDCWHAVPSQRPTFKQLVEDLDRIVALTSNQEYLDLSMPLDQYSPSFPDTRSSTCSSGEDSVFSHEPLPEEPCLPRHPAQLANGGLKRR
T4 sequence (P42684 whole entry): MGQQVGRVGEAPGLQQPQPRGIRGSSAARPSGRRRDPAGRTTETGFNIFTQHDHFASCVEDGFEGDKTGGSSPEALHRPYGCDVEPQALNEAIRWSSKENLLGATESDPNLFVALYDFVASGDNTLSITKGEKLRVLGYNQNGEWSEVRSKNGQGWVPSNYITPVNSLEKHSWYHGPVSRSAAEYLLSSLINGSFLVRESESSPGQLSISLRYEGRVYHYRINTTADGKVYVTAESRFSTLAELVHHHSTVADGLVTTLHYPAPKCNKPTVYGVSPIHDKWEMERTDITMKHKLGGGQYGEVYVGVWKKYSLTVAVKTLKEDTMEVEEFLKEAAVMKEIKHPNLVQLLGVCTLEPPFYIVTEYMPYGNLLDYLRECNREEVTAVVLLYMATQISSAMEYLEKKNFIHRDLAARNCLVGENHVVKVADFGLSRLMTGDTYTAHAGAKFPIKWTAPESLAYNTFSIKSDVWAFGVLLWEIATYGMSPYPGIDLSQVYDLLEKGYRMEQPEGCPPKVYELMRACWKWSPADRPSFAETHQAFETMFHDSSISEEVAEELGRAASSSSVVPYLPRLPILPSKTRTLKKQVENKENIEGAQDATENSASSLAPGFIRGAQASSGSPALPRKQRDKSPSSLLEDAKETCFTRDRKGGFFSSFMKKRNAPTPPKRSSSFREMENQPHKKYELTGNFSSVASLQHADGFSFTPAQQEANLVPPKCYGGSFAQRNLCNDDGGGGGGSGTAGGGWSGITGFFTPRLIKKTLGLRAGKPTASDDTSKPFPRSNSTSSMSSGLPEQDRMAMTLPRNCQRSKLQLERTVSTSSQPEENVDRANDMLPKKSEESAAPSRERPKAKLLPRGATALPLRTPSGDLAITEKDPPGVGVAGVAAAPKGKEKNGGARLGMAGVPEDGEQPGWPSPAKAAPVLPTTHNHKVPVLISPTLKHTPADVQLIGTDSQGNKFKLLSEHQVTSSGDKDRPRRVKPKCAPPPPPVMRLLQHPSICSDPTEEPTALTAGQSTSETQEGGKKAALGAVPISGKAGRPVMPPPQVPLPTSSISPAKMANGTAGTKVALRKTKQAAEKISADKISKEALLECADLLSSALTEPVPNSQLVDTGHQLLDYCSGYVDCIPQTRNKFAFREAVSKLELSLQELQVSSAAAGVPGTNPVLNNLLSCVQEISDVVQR
Chain of PAK5(PAK7) (Q9P286 whole entry): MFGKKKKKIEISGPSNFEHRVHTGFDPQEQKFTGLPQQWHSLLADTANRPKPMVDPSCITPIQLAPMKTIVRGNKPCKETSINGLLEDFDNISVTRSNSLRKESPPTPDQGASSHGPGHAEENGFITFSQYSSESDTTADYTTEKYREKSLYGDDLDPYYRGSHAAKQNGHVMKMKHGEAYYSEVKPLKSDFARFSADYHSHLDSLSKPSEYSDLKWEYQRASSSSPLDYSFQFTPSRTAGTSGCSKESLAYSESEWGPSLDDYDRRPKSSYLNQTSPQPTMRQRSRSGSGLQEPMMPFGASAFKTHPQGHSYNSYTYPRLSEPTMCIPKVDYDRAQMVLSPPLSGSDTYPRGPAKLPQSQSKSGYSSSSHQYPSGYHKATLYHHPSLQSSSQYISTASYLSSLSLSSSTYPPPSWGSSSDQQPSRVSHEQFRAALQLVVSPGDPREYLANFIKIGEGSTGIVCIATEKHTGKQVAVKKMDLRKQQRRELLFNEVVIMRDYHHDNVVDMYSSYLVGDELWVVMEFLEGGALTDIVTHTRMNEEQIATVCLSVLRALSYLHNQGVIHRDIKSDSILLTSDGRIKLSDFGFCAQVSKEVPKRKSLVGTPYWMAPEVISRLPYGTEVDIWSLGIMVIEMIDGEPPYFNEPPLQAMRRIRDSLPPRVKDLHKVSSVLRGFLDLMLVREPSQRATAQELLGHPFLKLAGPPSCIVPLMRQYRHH

O=C(Nc1ccc(F)nc1)C1CCCN1c1nc2c(c(Nc3cc(C4CC4)[nH]n3)n1)CCC2 (single isomer, unassigned) [Compound 2b, 1-(4-(5-cyclopropyl-1H-pyrazol-3-ylamino)-6,7-dihydro-5H-cyclopenta[d]pyrimidin-2-yl)-N-(6-fluoropyridin-3-yl)pyrrolidine-2-carboxamide]
inhibition at 1 µM (PAK5(PAK7)): 40 to 59% | inhibition at 1 µM (FLT3): 40 to 59% | inhibition at 1 µM (FES): 40 to 59% | inhibition at 1 µM (ABL): 40 to 59% | inhibition at 0.01 µM (Mer): 40 to 59% | inhibition at 0.1 µM (Mer; [2]): > 60% | inhibition at 1 µM (Mer; [3]): > 60% | inhibition at 1 µM (EPHA3): 40 to 59% | inhibition at 1 µM (ABL1(Y253F)): 40 to 59% | inhibition at 0.01 µM (FGFR1; FGFR1, 10 nM, read-out: Average % Inh @ 10 nM): < 39% | inhibition at 0.1 µM (FGFR1; FGFR1, 100 nM, read-out: Average % Inh @ 100 nM): < 39% | inhibition at 1 µM (FGFR1; FGFR1, 1 μM, read-out: Average % Inh @ 1 μM): > 60% | inhibition at 1 µM (EPHA5): > 60% | inhibition at 1 µM (Flt3(D835Y)): > 60% | inhibition at 0.01 µM (Arg; 10 nM, read-out: Average % Inh @ 10 nM): < 39% | inhibition at 0.1 µM (Arg; [2]): < 39% | inhibition at 1 µM (Arg; [3]): > 60% | inhibition at 0.01 µM (ROS(ROS1); ROS (ROS1)): > 60% | inhibition at 0.1 µM (ROS(ROS1); ROS (ROS1), 100 nM, read-out: Average % Inh @ 100 nM): > 60% | inhibition at 1 µM (ROS(ROS1); ROS (ROS1), 1 μM, read-out: Average % Inh @ 1 μM): > 60%

CC(C)c1cc(Nc2nc(N3CCCC3C(=O)Nc3ccc(F)nc3)nc3c2CCC3)n[nH]1 (single isomer, unassigned) [Compound 8b]
inhibition at 0.001 µM (Mer; 1 nM, read-out: Average % Inh @ 1 nM): < 39% | inhibition at 0.01 µM (Mer): > 60% | IC50 (Mer; 8 concentrations 3.0×10^−7 to 1.0×10^−10 M): 3.84 nM | tumor burden ([1]; MCF7 breast cancer model, nude mice, 10 and 15 mg/kg/po, various schedules (FIG. 2)): dose-dependently and significantly reduced tumor burden | body weights of the mice ([1]; MCF7 xenograft model (FIG. 4)): dose-dependently reduced body weights | IC50 (ROS(ROS1); ROS1, range of concentrations from 0.03 nM to 1): 15 nM | inhibition at 0.001 µM (ROS(ROS1); ROS (ROS1), 1 nM, read-out: Average % Inh @ 1 nM): 40 to 59% | inhibition at 0.01 µM (ROS(ROS1); ROS (ROS1)): > 60%
